# Reference: patent US7700631B2, “Phosphodiesterase 4 inhibitors” (Memory Pharmaceuticals Corporation, priority 2002, dated 2010)
# Legend:
# rats [1] = experiment: Passive Avoidance in Rats, an in vivo Test for Learning and Memory; set-up: species or system rat; settings: MK-801 0.1 mg/kg, compared to the vehicle, p<0.001, 24 hours after shock
# Experimental: The test was performed as previously described (Zhang, H.-T., Crissman, A. M., Dorairaj, N. R., Chandler, L. J., and O'Donnell, J. M., Neuropsychopharmacology, 2000, 23, 198-204.). The apparatus (Model E10-16SC, Coulbourn Instruments, Allentown, Pa.) consisted of a two-compartment chamber with an illuminated compartment connected to a darkened compartment by a guillotine door. The floor of the darkened compartment consisted of stainless steel rods through which an electric foot-shock could be delivered from a constant current source. All experimental groups were first habituated to the apparatus the day before the start of the experiment. During the training, the rat (Male Spraque-Dawley (Harlan) weighing 250 to 350 g) was placed in the illuminated compartment facing away from the closed guillotine door for 1 minute before the door was raised. The latency for entering the darkened compartment was recorded. After the rat entered the darkened compartment, the door was closed and a 0.5 mA electric shock was administered for 3 seconds. […] The latency for entering the darkened compartment was recorded for up to 180 seconds, at which time the trial was terminated.
# (§1) All data were analyzed by analyses of variance (ANOVA); individual comparisons were made using Kewman-Keuls tests. […]
# rats [2] = experiment: Radial Arm Maze Task in Rats, an In Vivo Test for Learning and Memory; set-up: species or system rat; settings: MK-801 0.1 mg/kg i.p., compared to control, p<0.01
# Experimental: The test was performed as previously described (Zhang, H.-T., Crissman, A. M., Dorairaj, N. R., Chandler, L. J., and O'Donnell, J. M., Neuropsychopharmacology, 2000, 23, 198-204.). Five days after initial housing, rats (male Spraque-Dawley (Harlan) weighing 250 to 350 g) were placed in the eight-arm radial maze (each arm was 60×10×12 cm high; the maze was elevated 70 cm above the floor) for acclimation for two days. Rats were then placed individually in the center of the maze for 5 minutes with food pellets placed close to the food wells, and then, the next day, in the wells at the end of the arms; 2 sessions a day were conducted. Next, four randomly selected arms were then baited with one pellet of food each. The rat was restricted to the center platform (26 cm in diameter) for 15 seconds and then allowed to move freely throughout the maze until it collected all pellets of food or 10 minutes passed, whichever came first. Four parameters were recorded: 1) working memory errors, i.e., entries into baited arms that had already been visited during the same trial; 2) reference memory errors, i.e., entries into unbaited arms; 3) total arm entries; and 4) the test duration (seconds), i.e., the time spent in the collection of all the pellets in the maze. […]
# as §1
smiles,measurement,setting,value
C[C@]12N[C@H](Cc3ccccc31)c1ccccc12 [MK-801],latency for entering the darkened compartment,rats [1],markedly reduced this latency
same,frequencies of working and reference memory errors,rats [2],increased the frequencies of both working and reference memory errors
